This assay has as its system IFN. The experiment in a line: Cytokine assay (ELISA) from homogenate of cultured duodenal biopsies: IFN. The assay is classed as cell-based, human. As to conditions: for IFN, PT + 5ASA O, Mean / IFN, PT + 5ASA O, Median: peptic-tryptic digest of gliadin (PT). The procedure: The biopsies were washed in saline for two minutes at least three times. […] After an incubation time ranging from 4 h to 72 h, at a T of 37° C.: The bioptic fragment is washed three times in saline for two minutes The biopsies are homogenised by mechanical or chemical disintegration Centrifugation is carried out, the supernatant is collected and transferred in a 1.5 ml Eppendorf Fixed cytokines in the mucosal tissue are assayed by the Elisa assay.
A general note: In an ELISA, binding on a coated surface is turned into a signal by an enzyme label.

Where [1] appears, read: Atrophic population, N 9, Wilcoxon p = 0.003.
The mark [2] stands for this setting: Atrophic population, N 9, Wilcoxon p = 0.019.
Where [3] appears, read: Remission population, N 4, Wilcoxon p = N.S.

On to `Nc1ccc(O)c(C(=O)O)c1` [Compound 5ASA, mesalazine], for which, for the setting “Atrophic population, N 9”, the “IFN, Medium + 5ASA O, Mean” value amounted to 0.202; the “IFN, Medium + 5ASA O, Median” value was found to be 0.193; the “IFN, PT + 5ASA O, Mean” value turned out to be 0.179; the “IFN, PT + 5ASA O, Median” value worked out at 0.193. Also, under setting [1], the “IFN, Difference Medium O/Medium + 5ASA O, Mean” value was determined as 0.0951 and the “IFN, Difference Medium O/Medium + 5ASA O, Median” value is 0.0560. In addition, under setting [2], the “IFN, Difference PT O/PT + 5ASA O, Mean” value worked out at 0.0437 and the “IFN, Difference PT O/PT + 5ASA O, Median” value came out at 0.0380. Under “Remission population, N 4”, the “IFN, Medium + 5ASA O, Mean” value is reported as 0.133; the “IFN, PT + 5ASA O, Mean” value was 0.177; the “IFN, PT + 5ASA O, Median” value is given as 0.161. Also, under setting [3], the “IFN, Difference Medium O/Medium + 5ASA O, Mean” value was found to be 0.120; the “IFN, Difference PT O/PT + 5ASA O, Mean” value came to 0.0230; the “IFN, Difference PT O/PT + 5ASA O, Median” value is 0.0215.

The record behind these values is patent US8153693B2, “Compounds for the selective treatment of the intestinal immuno-inflammatory component of the celiac disease” (Giuliani International Limited, priority 2007, dated 2012).
